{
  "source": "patent US20230364084A1",
  "about": "“METHODS FOR PREVENTING OR TREATING CONDITIONS RELATED TO PIKFYVE ACTIVITY” (The Regents of the University of Michigan, priority 2020, published 2023)",
  "key": {"[1]": {"system": "CXCL10 in VCaP, PC3 and DU145 cells", "test": "CXCL10 mRNA by qPCR in the presence of IFNγ", "type": "cell-based, human", "conditions": "PC3 and DU145, 24 hours", "method": "Total RNA was extracted from cells or tissue using the miRNeasy mini kit (Qiagen), and cDNA was synthesized from 1 μg total RNA using the High Capacity cDNA Reverse Transcription Kit (Applied Biosystems). qPCR was performed using Fast SYBR Green Master Mix (Applied Biosystems) on the ViiA7 Real-Time PCR System (Applied Biosystems). The target mRNA expression was quantified using the ΔΔCt method and normalized to GAPDH expression. The primer sequences used for the SYBR green qPCR are as follows: […]"}, "[2]": {"system": "VCaP cells", "test": "untargeted lipidomic analysis", "type": "cell-based, human", "conditions": "300 nM, 6 and 24 hours", "method": "Details of sample preparation and identification for untargeted lipidomic profiling have been previously reported^68. The lipids were extracted using a modified Bligh-Dyer method^69. The extraction was carried out using a 2:2:2 volume ratio of water:methanol:dichloromethane at room temperature after spiking internal standard lipids (17:0LPC, 17:0PC, 17:0PE, 17:0PG, 17:0 ceramide, 17:0SM, 17:0PS, 17:0PA, 17:0TG, 17:0MG, d5-DG, d31-TG, and 17.0-20.4 PI). The organic layer was collected and dried completely under nitrogen. The organic dried extract containing lipids was further analyzed by LC-MS-based lipidomics. The dried lipid extracts were injected onto a 1.8-μm particle 50×2.1 mm id Waters Acquity HSS T3 column (Waters, Milford, MA), which was heated to 55° C. […] As controls (QC) to monitor the profiling process, a pool of plasma and test plasma (a small aliquot from all test samples) were extracted and analyzed in tandem with the experimental samples. These controls were incorporated multiple times into the randomization scheme such that sample preparation and analytical variability could be constantly monitored. […] Identified lipids were quantified by normalizing against their respective internal standard. […] The QC samples were mainly used to remove technical outliers and lipid species that were detected below the lipid class-based lower limit of quantification."}, "[3]": {"system": "LAMP1 in DU145 cells", "test": "LAMP1 immunofluorescence", "type": "cell-based, human", "conditions": "300 nM, 24 hours", "method": "For LAMP1 immunofluorescence, cells were seeded on coverslips overnight and treated with ESK981 at 300 nM for 24 hours. Coverslips were fixed with 10% paraformaldehyde and permeabilized with 10% saponin. Coverslips were then blocked with 10% goat serum and stained with LAMP1 antibody (Cat No. 9091, Cell Signaling Technology) and fluorescently-labelled secondary antibody. Confocal images were taken using a Nikon A1 confocal microscope."}, "[4]": {"test": "toxicity evaluation in mice (body weight, serum chemistry, organ histology)", "type": "in vivo, mouse", "method": "To determine whether ESK981-mediated growth inhibition translated into anti-tumor effects, the efficacy of ESK981 in blocking prostate cancer growth in mouse xenograft models was assessed. VCaP cells were chosen for initial experiments because this cell line harbors the TMPRSS2:ERG gene fusion and AR amplification, both of which are frequent molecular aberrations in patients with advanced CRPC^29. A castration-resistant VCaP tumor-bearing xenograft mouse model was generated to mimic disease progression in human patients (FIG. 3a).\nWhole blood was collected using BD Microtainer SST tubes, and serum was isolated by centrifugation at 7000 rpm for 10 minutes. Sera were submitted to the University of Michigan ULAM Pathology Cores for Animal Research for liver and renal chemistry analysis."}, "[5]": {"system": "advanced, relapsed, or refractory solid tumors", "conditions": "cited from earlier work"}, "[6]": {"target": "T1, PIKfyve (Homo sapiens, UniProt Q9Y2I7)", "T1 sequence (Q9Y2I7 whole entry)": "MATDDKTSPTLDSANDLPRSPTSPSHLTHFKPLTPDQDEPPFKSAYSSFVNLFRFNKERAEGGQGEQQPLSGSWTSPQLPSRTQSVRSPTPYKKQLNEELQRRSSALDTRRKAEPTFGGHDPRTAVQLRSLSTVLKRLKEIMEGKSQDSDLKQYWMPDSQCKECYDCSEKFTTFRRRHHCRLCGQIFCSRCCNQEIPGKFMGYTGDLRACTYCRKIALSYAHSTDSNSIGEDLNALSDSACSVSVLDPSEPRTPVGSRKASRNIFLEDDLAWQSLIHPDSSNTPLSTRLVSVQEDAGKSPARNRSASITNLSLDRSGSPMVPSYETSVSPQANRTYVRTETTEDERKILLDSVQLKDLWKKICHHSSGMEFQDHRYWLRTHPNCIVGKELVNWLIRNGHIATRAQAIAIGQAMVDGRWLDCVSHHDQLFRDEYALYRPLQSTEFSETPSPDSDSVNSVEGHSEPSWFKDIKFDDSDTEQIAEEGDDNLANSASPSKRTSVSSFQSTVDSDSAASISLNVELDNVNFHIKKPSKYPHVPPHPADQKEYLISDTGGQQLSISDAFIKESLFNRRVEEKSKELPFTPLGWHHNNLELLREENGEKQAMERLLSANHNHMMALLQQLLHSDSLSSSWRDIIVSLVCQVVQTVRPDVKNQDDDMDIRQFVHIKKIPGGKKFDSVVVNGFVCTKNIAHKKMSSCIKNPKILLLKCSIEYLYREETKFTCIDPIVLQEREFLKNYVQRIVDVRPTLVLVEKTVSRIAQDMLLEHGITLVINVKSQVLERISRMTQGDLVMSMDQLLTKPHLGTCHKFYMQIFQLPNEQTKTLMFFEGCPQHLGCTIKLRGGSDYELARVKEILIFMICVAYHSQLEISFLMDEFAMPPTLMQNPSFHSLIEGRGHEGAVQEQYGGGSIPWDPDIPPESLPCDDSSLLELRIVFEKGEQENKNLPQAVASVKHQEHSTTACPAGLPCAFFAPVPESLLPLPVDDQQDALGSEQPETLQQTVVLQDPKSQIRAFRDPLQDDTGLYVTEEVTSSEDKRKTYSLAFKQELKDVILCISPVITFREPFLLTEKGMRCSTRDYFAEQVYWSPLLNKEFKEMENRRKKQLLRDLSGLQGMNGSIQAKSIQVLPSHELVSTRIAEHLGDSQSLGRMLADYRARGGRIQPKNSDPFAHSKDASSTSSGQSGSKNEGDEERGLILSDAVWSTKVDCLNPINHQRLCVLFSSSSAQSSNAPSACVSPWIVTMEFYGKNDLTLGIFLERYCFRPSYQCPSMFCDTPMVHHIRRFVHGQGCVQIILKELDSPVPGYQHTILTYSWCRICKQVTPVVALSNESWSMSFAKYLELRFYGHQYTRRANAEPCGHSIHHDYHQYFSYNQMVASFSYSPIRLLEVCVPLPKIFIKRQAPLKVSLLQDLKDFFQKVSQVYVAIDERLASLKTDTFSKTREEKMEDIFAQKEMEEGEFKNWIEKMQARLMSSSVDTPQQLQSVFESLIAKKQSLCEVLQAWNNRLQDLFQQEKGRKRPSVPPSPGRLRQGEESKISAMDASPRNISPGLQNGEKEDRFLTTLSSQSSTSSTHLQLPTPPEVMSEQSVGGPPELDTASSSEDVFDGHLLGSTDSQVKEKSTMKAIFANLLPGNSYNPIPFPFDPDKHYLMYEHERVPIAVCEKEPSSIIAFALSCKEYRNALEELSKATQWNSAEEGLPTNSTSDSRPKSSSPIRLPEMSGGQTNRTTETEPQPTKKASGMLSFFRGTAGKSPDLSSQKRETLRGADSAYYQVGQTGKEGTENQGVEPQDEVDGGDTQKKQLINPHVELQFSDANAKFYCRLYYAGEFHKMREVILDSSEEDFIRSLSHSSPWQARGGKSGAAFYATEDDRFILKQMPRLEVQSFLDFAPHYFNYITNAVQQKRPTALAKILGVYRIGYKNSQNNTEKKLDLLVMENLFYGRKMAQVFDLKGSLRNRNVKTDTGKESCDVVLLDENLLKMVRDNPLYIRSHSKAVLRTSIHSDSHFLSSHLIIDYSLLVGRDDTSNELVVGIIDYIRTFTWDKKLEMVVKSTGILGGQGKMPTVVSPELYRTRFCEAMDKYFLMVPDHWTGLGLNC", "test": "lipid kinase competition assay (scanLIPID panel, 22 lipid kinases)", "type": "binding", "parameters": "purchased DiscoveRX (KINOMEscan scanLIPID panel; KdELECT)", "conditions": "1 μM ESK981, only target among 22 phosphoinositide kinases", "method": "Lipid kinase competition assays for 22 lipid kinases, including clinically-relevant mutants, were performed using DiscoveRX KINOEscan® platform scanLIPID® panel. Detailed information is described on the DiscoveRX website (https://www.discoverx.com/technologies-platforms/competitive-binding-technology/kinomescan-technology-platform)."}, "[7]": {"target": "T1, PIKfyve", "test": "kinase dissociation constant analysis (KdELECT)", "type": "binding", "parameters": "purchased DiscoveRX (KINOMEscan scanLIPID panel; KdELECT)", "conditions": "11-point dose-response, duplicate", "method": "Quantitative binding constants (Kd) of ESK981 to PIKfyve, PIP5K1A, PIP5K1C, and PIK3CA were generated using KdELECT® platform (DiscoveRX). An 11-point dose-response of ESK981 (0.05-3000 nM) was used, and the experiment was performed in duplicate. Detailed information is described on the DiscoveRX website (www.discoverx.com)."}, "[8]": {"system": "lysosomes in VCaP, LNCaP, PC3 and DU145 cells", "test": "LysoTracker Green flow cytometry", "type": "cell-based, human", "conditions": "four prostate cancer cell lines, 24 hours, increasing concentrations", "method": "Cells were grown in 6-well plates and treated with various drugs. After 24 hours, cells were stained with LysoTracker® Green DND-26 (Invitrogen), and green fluorescence signal was analyzed by flow cytometry."}},
  "data": [
    {"smiles": "CC(C)Cn1c2ccc(Nc3ncccn3)cc2c2c3c(c4c(c21)CCc1nn(C)cc1-4)C(=O)NC3", "note": "[ESK981, 13-isobutyl-4-methyl-10-(pyrimidin-2-ylamino)-1,2,4,7,8,13-hexahydro-6H-indazolo[5,4-a]pyrrolo[3,4-c]carbazol-6-one]", "values": [
      {"measurement": "expression of CXCL10 in the presence of IFNγ", "setting": "[1]", "result": "enhance expression of CXCL10"},
      {"measurement": "major lipid changed", "setting": "[2]", "result": "phosphatidylethanolamine (PE) was the major lipid increased"},
      {"measurement": "LAMP1 staining of ESK981-induced vacuoles", "setting": "[3]", "result": "positive for the lysosomal marker LAMP1"},
      {"measurement": "tissue vacuolization in major organs", "setting": "[4]; H&E staining of organs of ESK981-treated mice", "result": "no major organs were found to have the same tissue vacuolization morphology"},
      {"measurement": "body weight loss", "setting": "[4]; VCaP tumor-bearing mice", "result": "within the range of tolerance"},
      {"measurement": "tolerability in mice", "setting": "[4]; body weight, liver and kidney serum chemistry, histology of major organs", "result": "well-tolerated"},
      {"measurement": "evaluable patients achieving stable disease", "setting": "[5]; measured at ≥6 weeks of ESK981 treatment", "result": 51, "unit": "%"},
      {"measurement": "safety, pharmacokinetic and pharmacodynamic profiles", "setting": "[5]; patients with advanced, relapsed, or refractory solid tumors", "result": "favorable safety, pharmacokinetic, and pharmacodynamic profiles"},
      {"measurement": "competition in affinity binding screen", "setting": "[6]", "result": "completely competed away"},
      {"measurement": "Kd", "setting": "[7]", "result": 12, "unit": "nM"},
      {"measurement": "lysosome quantity (LysoTracker Green)", "setting": "[8]", "result": "Increased ESK981 lysosome quantity was observed in a dose-dependent manner"}
    ]}
  ]
}
